Laboratory results from patent US11203577B2, “Sulfonyl-structure-containing triazinone derivatives, their preparation methods and their uses in insect killing and/or bacterium killing” (Nankai University, priority 2017, dated 2021).

Legend:
Apple ring rot = experiment: In vitro fungicidal activity, PDA colony diameter; assay type: cell-based; settings: inhibition of colony diameter
Method: (§1) Here, the test is described in an example of Alternaria solani; it can be replaced by other fungi.
(§2) In vitro testing method: Alternaria solani is inoculated to a PDA culture medium and cultured for 7 days, a fungus dish with a diameter of […] is prepared on the periphery of the colony with a punch and inoculated to a PDA culture medium that contains pesticide at a concentration of 50 mg/kg and a PDA culture medium that doesn't contain the pesticide, and are cultured for 4 days respectively; then, the colony diameters are measured, and the inhibition percentages of the pesticides are calculated by comparing with the control sample.

[1] = tested on: Capsicum phytophthora blight; experiment: In vitro fungicidal activity, PDA colony diameter; assay type: cell-based; settings: 96 h
Method: as §1, §2

Potato late blight = experiment: microbe, parasite or virus in culture; assay type: cell-based; settings: Phytophthora infestans, 96 h, read-out: Fungicidal activity (%) Potato late blight
[2] = tested on: bean aphides (Aphis laburni Kaltenbach); experiment: Test of insecticidal activity against aphides (leaf immersion, checked after 96 h); settings: for insecticidal activity against aphides compared with pymetrozine: 5 mg/kg
Maize borers = experiment: Test of insecticidal activity against maize borers (leaf immersion); settings: read-out: Mortalities (%) Maize borers
Sclerotinia rot of colza = experiment: In vitro fungicidal activity, PDA colony diameter; assay type: cell-based; settings: 96 h, 50 mg/kg, inhibition of colony diameter, read-out: Fungicidal activity (%) Sclerotinia rot of colza
Wheat sheath blight = experiment: In vitro fungicidal activity, PDA colony diameter; assay type: cell-based; settings: 50 mg/kg, inhibition of colony diameter; read-out: Fungicidal activity (%) Wheat sheath blight
Rice bakanae disease = experiment: In vitro fungicidal activity, PDA colony diameter; assay type: cell-based; settings: 50 mg/kg, inhibition of colony diameter; read-out: Fungicidal activity (%) Rice bakanae disease
Cucumber fusarium wilt = experiment: In vitro fungicidal activity, PDA colony diameter; assay type: cell-based; settings: 96 h, 50 mg/kg, inhibition of colony diameter, read-out: Fungicidal activity (%) Cucumber fusarium wilt
Rice sheath blight = experiment: In vitro fungicidal activity, PDA colony diameter; assay type: cell-based; settings: 50 mg/kg, inhibition of colony diameter; read-out: Fungicidal activity (%) Rice sheath blight
Armyworms = experiment: Test of insecticidal activity against armyworms (leaf immersion); settings: 600 mg/kg, 3-4 days
[3] = tested on: Cercospora brown spot of peanut; experiment: In vitro fungicidal activity, PDA colony diameter; assay type: cell-based; settings: 96 h, 50 mg/kg, inhibition of colony diameter, read-out: Fungicidal activity (%) Cercospora brown spot of peanut
Tomato early blight = experiment: In vitro fungicidal activity, PDA colony diameter; assay type: cell-based, Alternaria solani; settings: 50 mg/kg, inhibition of colony diameter; read-out: Fungicidal activity (%) Tomato early blight
Wheat head blight = experiment: whole plant or invertebrate; assay type: cell-based; settings: Triticum aestivum, read-out: Fungicidal activity (%) Wheat head blight
Cotton bollworms = experiment: Test of insecticidal activity against cotton bollworms (pesticide mixed into feedstuff); settings: read-out: Mortalities (%) Cotton bollworms
Method: Method of testing against cotton bollworms: the pesticide is mixed into the feedstuff, i.e., 3 mL prepared solution is added into about 27 g freshly prepared feedstuff; thus, required concentration is obtained by diluting by 10 times.

Watermelon anthracnose = experiment: In vitro fungicidal activity, PDA colony diameter; assay type: cell-based; settings: 50 mg/kg, inhibition of colony diameter; read-out: Fungicidal activity (%) Watermelon anthracnose
[4] = tested on: mosquito larvae (Culer pipiens pallens); experiment: Test of insecticidal activity against mosquito larvae (checked after 24 h); settings: 24 h, read-out: Mortalities (%) against mosquito larvae
Method: Method of testing against mosquito larvae: the tested mosquito larvae are Culer pipiens pallens, a normal colony fed indoor. About 5 mg compound to be tested is weighed and loaded into a penicillin vial, 5 mL acetone (or an appropriate solvent) is added into the vial, and the vial is oscillated to dissolve the compound; thus, 1,000 ppm mother liquid is obtained. 1 mL mother liquid is weighed and added into a 100 mL beaker filled with 89 mL water, 10 mosquito larvae in the early stage of the 4th instar together with 10 mL feeding solution are poured into the beaker; thus, the concentration of the pesticide solution is 10 ppm (the pesticide solutions with other concentrations are attained by diluting the mother liquid by corresponding times). […] Water solution that contains 0.5 mL test solvent is used as a blank sample.

[5] = tested on: Corn southern leaf blight; experiment: In vitro fungicidal activity, PDA colony diameter; assay type: cell-based; settings: 50 mg/kg, inhibition of colony diameter; read-out: Fungicidal activity (%) Corn southern leaf blight
[6] = Aphis, 96 h, read-out: Mortalities (%) against aphides

Compound | inhibition at 50 mg/kg (Apple ring rot) [%] | inhibition of growth at 50 mg/kg [1] [%] | inhibition of growth at 50 mg/kg (Potato late blight) [%] | mortality at 10 mg/kg [2, 6] [%] | mortality at 100 mg/kg [2, 6] [%] | mortality at 600 mg/kg [2, 6] [%] | mortality at 600 mg/kg (Maize borers) [%] | inhibition of growth at 50 mg/kg (Sclerotinia rot of colza) [%] | inhibition at 50 mg/kg (Wheat sheath blight) [%] | inhibition at 50 mg/kg (Rice bakanae disease) [%] | inhibition of growth at 50 mg/kg (Cucumber fusarium wilt) [%] | inhibition at 50 mg/kg (Rice sheath blight) [%] | Mortalities (%) Armyworms (Armyworms) [%] | inhibition of growth at 50 mg/kg [3] [%] | inhibition at 50 mg/kg (Tomato early blight) [%] | inhibition at 50 mg/kg (Wheat head blight) [%] | mortality at 600 mg/kg (Cotton bollworms) [%] | inhibition at 50 mg/kg (Watermelon anthracnose) [%] | mortality at 10 mg/kg [4] [%] | inhibition at 50 mg/kg [5] [%] | further results
COc1ccc(S(=O)(=O)NN2CC(C)=NNC2=O)cc1 [Ia-14, 4-methoxy-N-(6-methyl-3-oxo-2,3-dihydro-1,2,4-triazin-4(5H)-yl)-benzenesulfonamide] | 33.8 | 13.9 | 3.1 | 100 | 100 | 100 | 0 | 15.8 | 21.7 | 10.3 | 8.8 | 11.6 | 0 | 12 | 13.4 | 16.2 | 0 | 26.2 | 100 | 9.3 | mortality at 2.5 mg/kg [2, 6]: 35%; mortality at 5 mg/kg [2, 6]: 100%; mortality at 2 mg/kg [4]: 10%; mortality at 5 mg/kg [4]: 95%
CCCS(=O)(=O)N(N1CC(C)=NNC1=O)S(=O)(=O)CCC [Ib-3, N-(6-methyl-3-oxo-2,3-dihydro-1,2,4-triazin-4(5H)-yl)-N-(n-propylsulfonyl)propyl-1-sulfonamide] | 17.2 | 26.5 | 22.2 |  |  | 75 | 10 | 40 | 52.3 | 38.9 | 0 | 38.1 | 10 | 15.8 | 0 | 10 | 5 | 25 | 25 | 20.8 | 
CCCCS(=O)(=O)N(N1CC(C)=NNC1=O)S(=O)(=O)CCCC [Ib-4, N-(n-butylsulfonyl)-N-(6-methyl-3-oxo-2,3-dihydro-1,2,4-triazin-4(5H)-yl)-butyl-1-sulfonamide] | 27.6 | 34.7 | 33.3 |  |  | 90 | 10 | 43.3 | 65.5 | 50 | 20 | 27 | 15 | 15.8 | 19 | 3.3 | 45 | 29.2 | 75 | 20.8 | 
CC1=NNC(=O)N(NS(=O)(=O)C2CCCCC2)C1 [Ia-6, N-(6-methyl-3-oxo-2,3-dihydro-1,2,4-triazin-4(5H)-yl)-cyclohexylsulfonamide] | 39.2 | 18.8 | 3.1 |  | 45 | 85 | 40 | 31.6 | 30.9 | 12.5 | 20.6 | 11.6 | 50 | 13 | 12.9 | 10.9 | 30 | 12.5 | 70 | 7.7 | 
CC1=NNC(=O)N(NS(=O)(=O)c2ccc(OC(F)(F)F)cc2)C1 [Ia-27, N-(6-methyl-3-oxo-2,3-dihydro-1,2,4-triazin-4(5H)-yl)-4-(trifluoromethoxy)-benzenesulfonamide] | 24.3 | 27.8 | 28.1 | 100 | 100 | 100 | 15 | 15.8 | 4.3 | 17.2 | 0 | 17.4 | 5 | 12 | 16.4 | 16.2 | 25 | 16.4 | 100 | 15.6 | insecticidal activity against aphides compared with pymetrozine [2]: equivalent to the insecticidal activity of pymetrozine; mortality at 5 mg/kg [2, 6]: 35%; mortality at 2 mg/kg [4]: 20%; mortality at 5 mg/kg [4]: 90%
CC1=NNC(=O)N(NS(=O)(=O)c2ccc(F)cc2)C1 [Ia-18, 4-fluoro-N-(6-methyl-3-oxo-2,3-dihydro-1,2,4-triazin-4(5H)-yl)-benzenesulfonamide] | 8.1 | 5.6 | 18.7 | 100 | 100 | 100 | 25 | 21 | 4.3 | 20.7 | 14.7 | 22.1 | 50 | 12 | 11.9 | 2.7 | 0 | 14.7 | 100 | 3.1 | insecticidal activity against aphides compared with pymetrozine [2]: equivalent to the insecticidal activity of pymetrozine; mortality at 5 mg/kg [2, 6]: 45%; mortality at 2 mg/kg [4]: 40%; mortality at 5 mg/kg [4]: 100%
CC1=NNC(=O)N(N(S(=O)(=O)c2cccnc2)S(=O)(=O)c2cccnc2)C1 [Ib-9, N-(6-methyl-3-oxo-2,3-dihydro-1,2,4-triazin-4(5H)-yl)-N-(pyrid-3-yl-sulfonyl)pyridyl-3-sulfonamide] | 21.4 | 11.5 | 14.3 | 20 | 80 | 95 | 10 | 12.5 | 15.1 | 0 | 7.7 | 26.8 | 15 | 19.2 | 25 | 21.2 | 5 | 3.1 | 10 | 5.6 | 
CC1=NNC(=O)N(NS(=O)(=O)c2ccc3c(c2)CCO3)C1 [Ia-33, N-(6-methyl-3-oxo-2,3-dihydro-1,2,4-triazin-4(5H)-yl)-2,3-dihydrobenzofuran-5-sulfonamide] | 9.5 | 19.2 | 19 |  | 40 | 90 | 0 | 12.5 | 9.4 | 3.7 | 5.1 | 10.7 | 5 | 11.5 | 15 | 33.3 | 0 | 0 | 85 | 11.1 | 
